A short description of this data set: Intravenous and oral excretion profile in Wistar rats. The class given is in vivo. Particulars: after i.v. administration, first measurement point. As to the method: On the day before administration of the substance, a catheter for obtaining blood is implanted in the jugular vein of the experimental animals (male Wistar rats, body weight 200-250 g) under Isoflurane. anesthesia.
Urine and faeces are taken collected from metabolic cages over the course of 144 h after administration of the substance. The administration volume is 10 ml/kg for oral and 1 ml/kg for IV in male Wistar rats. Intravenous administration is via a formulation of 2% N—N Dimethyl acetamide/ethanol 10%/PEG400(30%)/water for IV injection (58%) and via Tween80/PEG400/sterile water in the case of oral administration. Urine and faeces collection is 0-4, 4-8, 8-24, 24-48, 48-72, 72-96, 96-120, 120-144 in the case of IV and for oral administration.
Urine and faeces was processed and IS containing Acetonitrile is added to a defined urine/faeces and precipitated. After centrifugation, compound formula (B) and, where appropriate, known cleavage products of the compound formula (B) in the supernatant are determined quantitatively using a suitable LC/MS-MS method.
The measured urine and faeces concentrations are used to calculate parameters of the test substance and of the active ingredient compound (A) liberated there from, such as AUC and Cmax.
Acetonitrile containing IS is added to the study samples, calibration samples and QCs, and the protein is precipitated using acetonitrile. […]

The structures appear in SMILES notation.

Consider `O=CN(C[C@H]1CN(c2ccc(N3CCOCC3=O)cc2)C(=O)O1)C(=O)c1ccc(Cl)s1` [compound formula (B), 5-chloro-N-formyl-N-({(5S)-2-oxo-3-[4-(3-oxomorpholin-4-yl)phenyl]-1,3-oxazolidin-5-yl}methyl)thiophene-2-carboxamide], for which the “Detectability of unchanged test substance in urine and faeces” value is “no longer detectable”.

The values above are taken from patent US20160251342A1, “ALDEHYDE DERIVATIVE OF SUBSTITUTED OXAZOLIDINONES” (WANBURY LTD., priority 2012, published 2016).
